Values joined by “and” are separate entries in the source; they are usually repeats but may differ in a detail not shown here. Equal entries are not always repeated. Where two headings read alike, the source gives them in different places.
Columns and labels:
[1] = tested on: T1, TLR7/8; test: Subsequent human PBMC assay, various TLR7/8 ligands, IL-6 and IFN-α blockade; assay type: cell-based
T1 construct: other: human PBMC; ligand SL4-Ig; individual donors 1-6; average of donors; ligand RNA40-DOTAP; individual donors; ligand R848; ligand
Method: (§1) Human PBMC Cell-Based Assay. Human peripheral blood mononuclear cells (PBMC) were isolated from freshly-drawn heparinized (10 USP units/ml, Hospira, Lakeforest, Ill.) healthy donor whole blood by density gradient (Histopaque® 1077, Sigma, Inc., St. Louis, Mo.). Briefly, 25 ml blood was diluted with 15 ml PBS (without Ca^2+, Mg^2+) in a 50 ml conical tube, and 12 ml Histopaque was underlaid using a spinal needle. Tubes were centrifuged for 45 minutes at 1200 rpm (350×g), and PBMC were collected from the buffy coat. Cells were then washed twice in PBS, and red blood cells were lysed by suspension in 5 ml ammonium chloride solution (1× Red Blood Cell Lysis Buffer, eBioscience) for 5 minutes at room temperature. After a final wash in PBS, PBMC were resuspended at a final concentration of 2×10^6/ml in RPMI-1640 media with L-glutamine (Invitrogen) and supplemented with 25 mM HEPES (Mediatech, Inc, Manassas Va.), 10% fetal bovine serum (HyClone, Logan, Utah), and Penicillin-Streptomycin-Glutamine (Mediatech) and plated at 100 ul/well (2×10^5 cells/well) in tissue culture treated 96-well plates (Falcon).
(§2) Antagonist compounds solubilized and serial diluted in 100% DMSO were added in triplicate to cells to yield a final concentration of 0.1% DMSO (v/v). Hydroxychloroquine (Acros Organics) solubilized and serial diluted in PBS was added in triplicate to cells. PBMC were incubated with antagonist compounds or HCQ for 30 minutes at 37° C., 5% CO2 before adding various TLR agonist reagents in 100 ul complete media per well as follows (final concentrations indicated): R848 (Resiquimod; GLSynthesis, Worcester, Mass.) at 1 uM for TLR7 and TLR8, LPS (Sigma) at 10 ng/ml for TLR4, and CpG-2216 (InvivoGen) at 5 ug/ml for TLR9. To prepare a TLR7/8 agonist that mimics RNA-containing auto-antibody immune complexes in lupus patients, a 26-mer RNA with a sequence derived from human U1 snRNA stem loop IV [(sequence: […]-[…] (SEQ ID NO: 2) with phosphorothioate backbone] was synthesized (Dharmacon, Inc., Lafayette, Colo.), which has been shown previously to be a potent TLR7 and TLR8 agonist. This RNA molecule was diluted to 2.5 μM in serum-free RPMI, and mouse anti-human single stranded DNA monoclonal antibody (MAB3034, Millipore, Inc., Billerica, Mass.), which also cross-reacts with RNA, was added at a 1:25 dilution or at 1 ug/ml. The resulting “RNA-Ig” stimulus was incubated at room temperature for 15-30 minutes before adding to cells. PBMC were incubated with the various TLR agonists for 20 hours at 37° C., 5% CO2. Cell culture supernatants were collected, and levels of various human cytokines were assessed as indicated by standard ELISA procedure according to the manufacturer's recommended protocol (BD Biosciences, Inc., San Diego, Calif.). In a subsequent assay (Table 6) the ability of ER-899742 to block stimulation of normal PBMC by various TLR7/8 ligands, but not DNA-mediated activation of TLR9, was examined. In this assay cells were plated at 1×10^5 cells/well in 100 ul in 96-well plates.

[2] = tested on: T2, TLR7/8; test: as above; assay type: cell-based
T2 construct: other: human PBMC; ligand SL4-Ig; individual donors 1-6; average of donors; ligand RNA40-DOTAP; individual donors; ligand R848; ligand R848
Method: as §1, §2

[3] = read-out: IC50 IFN-α Ave., ligand R848, average of donors
[4] = read-out: IC50 IFN-α Ave., ligand RNA40-DOTAP, average of donors
[5] = read-out: IC50 IFN-α Ave., ligand SL4-Ig, average of donors
[6] = read-out: IC50 IL-6 Ave., ligand R848, average of donors
[7] = read-out: IC50 IL-6 Ave., ligand RNA40-DOTAP, average of donors
[8] = read-out: IC50 IL-6 Ave., ligand SL4-Ig, average of donors

| SMILES | IC50 [1, 3] [nM] | IC50 [1, 4] [nM] | IC50 [1, 5] [nM] | IC50 ([1]; read-out: IC50 IFN-α, ligand R848, individual donors, hydrochloride) | IC50 ([1]; read-out: IC50 IFN-α, ligand RNA40-DOTAP, individual donors, hydrochloride) | IC50 ([1]; read-out: IC50 IFN-α, ligand SL4-Ig, individual donors 1-6, hydrochloride) | IC50 ([2]; read-out: IC50 IL-6, ligand R848, individual donors, hydrochloride) | IC50 ([2]; read-out: IC50 IL-6, ligand RNA40-DOTAP, individual donors, hydrochloride) | IC50 ([2]; read-out: IC50 IL-6, ligand SL4-Ig, individual donors 1-6, hydrochloride) | IC50 [2, 6] [nM] | IC50 [2, 7] [nM] | IC50 [2, 8] [nM] | IC50 ([1]; read-out: IC50 IFN-α, ligand R848, individual donors) | IC50 ([1]; read-out: IC50 IFN-α, ligand RNA40-DOTAP, individual donors) | IC50 ([1]; read-out: IC50 IFN-α, ligand SL4-Ig, individual donors 1-6) | IC50 ([2]; read-out: IC50 IL-6, ligand R848, individual donors) [nM] | IC50 ([2]; read-out: IC50 IL-6, ligand RNA40-DOTAP, individual donors) | IC50 ([2]; read-out: IC50 IL-6, ligand SL4-Ig, individual donors 1-6) |
| --- | --- | --- | --- | --- | --- | --- | --- | --- | --- | --- | --- | --- | --- | --- | --- | --- | --- | --- |
| C[C@@H]1CN(c2ccc(C#N)c3ncccc23)C[C@H](C(=O)N[C@H]2CNC[C@H]2F)O1.Cl [ER-899742, (2R,6R)-4-(8-cyanoquinolin-5-yl)-N-[(3S,4R)-4-fluoropyrrolidin-3-yl]-6-methylmorpholine-2-carboxamide hydrochloride] | 11 | 13.9 | 1.4 | 12 nM and 11 nM and 10 nM | 9.6 nM and 18 nM and 11 nM and 17 nM | 2.2 nM and 0.5 nM | 6.5 nM and 7 nM and 4.9 nM and 5.5 nM and 8.1 nM and 3.4 nM | 23 nM and 54 nM and 33 nM and 29 nM and 14 nM and 35 nM | 3.2 nM and 4.3 nM and 2.5 nM and 3.3 nM and 7.7 nM | 5.9 | 31.3 | 4.2 | – | – | – | – | – | – |
| CCN(CCO)CCCC(C)Nc1ccnc2cc(Cl)ccc12 (stereo not drawn) [HCQ, hydroxychloroquine, reference compound] | 1950 | 598 | 392 | – | – | – | – | – | – | > 10000 | 12100 | 4100 | 1250 nM and 2570 nM and 2030 nM | 490 nM and 410 nM and 990 nM and 502 nM | 459 nM and 324 nM | > 10000 | 10000 nM and 10800 nM and > 10000 nM and 15500 nM and 18000 nM and 6100 nM | 5200 nM and 3700 nM and 3200 nM and 3600 nM and 4300 nM and 4600 nM |

Reference: USRE47193E1, “Selectively substituted quinoline compounds” (EISAI R&D MANAGEMENT CO., LTD., priority 2013, dated 2019)
